Data published in patent US10426775B2, “Methods for treating Friedreich's ataxia with etravirine” (Fratagene Therapeutics srl, priority 2017, dated 2019).

Columns and labels:
frataxin = assay: Western blot of frataxin in lymphoblastoid cell lines derived from FRDA patients; assay type: cell-based, human
Protocol: Lymphoblastoid cell lines from one healthy subject [GM16215] and 7 FRDA patients [GM16228, GM16203, GM16214, GM16223, GM16210, GM16205, GM16216], and primary fibroblasts from 2 FRDA patients [GM02816 and GM04078], were obtained from NIGMS Human Genetic Cell Repository, Coriell Institute for Medical Research (Camden, N.J., USA). Lymphoblasts and fibroblasts were grown at 37° C. and 5% CO2 and were respectively cultured in RPMI or DMEM, supplemented with 15% FBS, […] penicillin/streptomycin and 2 mM L-glutamine.
For the validation steps, etravirine (TMC125) was purchased from Selleckchem and was dissolved in DMSO at a stock concentration of 10 mM. HEK-293 Flp-In cells, stably overexpressing frataxin, were treated with the drug (or only DMSO) for 24 hours at final concentration of 10 μM. FRDA cells were treated with different concentration of etravirine. For all drug (and no drug) treatments, the final concentration of DMSO in the cell culture medium was 0.1%.
(§1) Total cell extracts were prepared in lysis buffer (50 mM Tris-HCl, pH 7.5, 150 mM NaCl, 1% Igepal CA-630, 5 mM EDTA, 5 mM EGTA) supplemented with complete protease inhibitor cocktail (Roche Diagnostics, Indianapolis, Ind., USA). Lysates were clarified by centrifugation and supernatants were mixed with 4× Laemmli sample buffer (50 mM Tris pH 6.8, 2% SDS, 10% gliycerol, 0.0025% bromophenol blue, 5% beta-mercaptoethanol), boiled for 5 min, resolved by precast 12% SDS-PAGE gels (Bio-Rad Laboratories, Hercules, Calif., USA) and transferred to […] nitrocellulose membrane (TRANS-BLOT® TURBO™ Transfer pack, Bio-Rad). Membranes were blocked with 5% non-fat dry milk, 0.1% Tween 20 in phosphate-buffered saline (PBS) and incubated with the indicated primary and secondary antibodies. The immunoreactive bands were detected by ECL (GE Healthcare, Chalfont St. Giles, UK) and imaged with a ChemiDoc XRS system (Bio-Rad). Densitometry analysis was performed using the ImageLab 4.1 Software (Bio-Rad). To analyse the western blot densitometry results, a Student's t test was applied. All values are expressed as means±1 S.E.M.
In order to evaluate whether the precursor that readily accumulates upon etravirine treatment can be converted into the mature functional form of frataxin, we tested the effect of different doses of etravirine, ranging from 100 nM to 10 μM, on a lymphoblastoid cell line, GM16203, derived from an FRDA patient. The cells were treated with the indicated doses of etravirine for 24 hours. Cell extracts were resolved on SDS-PAGE and analyzed by western blot analysis with anti-frataxin and anti-tubulin, as a loading control. We tested different doses, ranging from 100 nM to 3 μM, on the lymphoblastoid cell line GM16203.
A) FRDA lymphoblast cells, GM16203, were treated with the indicated doses of etravirine for 24 hours. Cell extracts were resolved on SDS-PAGE and analyzed by western blot analysis with anti-frataxin (lower panel) and anti-tubulin (upper panel), as a loading control. Int: intermediate frataxin; mat: mature frataxin; tub: tubulin. B) The graph represents the relative mature frataxin levels measured by densitometric analysis of independent blots and normalized with tubulin levels. Data represent the average of three independent experiments±S.E.M. p-values were calculated with Student's t-test (*p<0.05; **p<0.01)
We chose the minimal effective dose (300 nM) to evaluate the efficacy of etravirine over a broad range of cells derived from FRDA patients. In particular, we analysed 7 lymphoblastoid cell lines derived from FRDA patients and primary fibroblasts derived from two different FRDA patients. Each cell line was treated with 300 nM etravirine for 24 hours. Cell extracts were resolved on SDS-PAGE and analyzed by western blot analysis with anti-frataxin and anti-tubulin, as a loading control. Etravirine promotes increase in intermediate and mature frataxin levels in all the cell lines tested upon 24 hours of treatment (FIGS. 3A-3B). […]

frataxin precursor = assay: Western blot of frataxin in HEK293 cells expressing only endogenous frataxin; assay type: cell-based, human; settings: 10 μM etravirine
Protocol: as §1, with “Membranes were blocked with 5% non-fat dry milk, 0.1% Tween 20 in phosphate-buffered saline (PBS) and incubated with the indicated primary and secondary antibodies.” left out, “Densitometry analysis was performed using the ImageLab 4.1 Software (Bio-Rad). To analyse the western blot densitometry results, a Student's t test was applied.” left out
The identified candidate drugs were individually validated for their ability to promote frataxin accumulation in different cell types. […] Protein extracts from the cell lines were resolved on SDS-PAGE and analyzed by western blot with anti-frataxin antibody and anti-tubulin as a loading control. […]
HEK 293-fxn stably expressing frataxin (A), HEK 293 (B), or FRDA lymphoblast cell line GM16203 (C) were treated with 10 μM etravirine for the indicated time points. Protein extracts were resolved on SDS-PAGE and analyzed by western blot with anti-frataxin antibody and anti-tubulin as a loading control. […]

Cc1cc(C#N)cc(C)c1Oc1nc(Nc2ccc(C#N)cc2)nc(N)c1Br [etravirine]
frataxin precursor accumulation (frataxin; FRDA lymphoblast cell line GM16203, 10 μM etravirine): can also be detected
average fold increase in mature frataxin levels (frataxin; GM16203 lymphoblasts (830 GAA repeats), 300 nM etravirine, 24 hours): 1.41 fold
minimal effective dose (sufficient for a significant increase in intermediate and mature frataxin forms) (frataxin; GM16203 lymphoblasts, 24 hours, doses 100 nM to 10 μM): 300 nM
frataxin form induced at the highest dose (frataxin; GM16203 lymphoblasts, 24 hours, etravirine at 10 (μM)): mostly induces precursor accumulation
average fold increase in mature frataxin levels (frataxin; GM16205 lymphoblasts (530 GAA repeats), 300 nM etravirine, 24 hours): 1.58 fold
average fold increase in mature frataxin levels (frataxin; GM16210 lymphoblasts (580 GAA repeats), 300 nM etravirine, 24 hours): 1.22 fold
average fold increase in mature frataxin levels (frataxin; GM16214 lymphoblasts (700 GAA repeats), 300 nM etravirine, 24 hours): 1.71 fold
frataxin accumulation in treated patient cells vs unaffected carrier cells (frataxin; GM16214 treated vs GM16215 untreated, 24 hours, 300 nM etravirine): comparable to frataxin levels in untreated cells derived from healthy control
average fold increase in mature frataxin levels (frataxin; GM16216 lymphoblasts (500 GAA repeats), 300 nM etravirine, 24 hours): 1.21 fold
average fold increase in mature frataxin levels (frataxin; GM16223 lymphoblasts (630 GAA repeats), 300 nM etravirine, 24 hours): 1.22 fold
average fold increase in mature frataxin levels (frataxin; GM16228 lymphoblasts (840 GAA repeats), 300 nM etravirine, 24 hours): 1.62 fold
overall increase in mature frataxin levels in cells derived from FRDA patients (frataxin; all FRDA lymphoblastoid lines and fibroblasts tested, 300 nM etravirine, 24 hours): 50%
frataxin precursor accumulation (frataxin precursor): can also be detected
